This assay has as its target αHL ion channel (Staphylococcus aureus, UniProt P09616). The class given is biochemical. The following applies: pH 7.4.

Sequence of αHL ion channel (P09616 27-319 limits assumed): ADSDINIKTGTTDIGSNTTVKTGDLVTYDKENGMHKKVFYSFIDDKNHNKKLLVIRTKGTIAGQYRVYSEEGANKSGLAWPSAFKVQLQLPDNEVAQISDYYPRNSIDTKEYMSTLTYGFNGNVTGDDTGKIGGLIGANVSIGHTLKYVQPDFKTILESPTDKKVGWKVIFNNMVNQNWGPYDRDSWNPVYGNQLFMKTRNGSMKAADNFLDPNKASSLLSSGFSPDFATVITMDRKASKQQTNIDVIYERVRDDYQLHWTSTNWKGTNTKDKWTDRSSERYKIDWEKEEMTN

Turning to hepta-6-sulfato-β-cyclodextrin [s7βCD], the “reduction of conductance through the αHL when s7βCD is bound” value is about 90%.

Source of the values: patent US8581605B2 (priority 2006, dated 2013).
